# Target: T1, human PAR4 (Homo sapiens, UniProt Q96RI0)
# T1 construct: expressed in transfected cells; host or cells: HEK293 PAR4 Clone 1.2A (BMS Arctic ID 383940)
# T1 sequence (Q96RI0 18-385): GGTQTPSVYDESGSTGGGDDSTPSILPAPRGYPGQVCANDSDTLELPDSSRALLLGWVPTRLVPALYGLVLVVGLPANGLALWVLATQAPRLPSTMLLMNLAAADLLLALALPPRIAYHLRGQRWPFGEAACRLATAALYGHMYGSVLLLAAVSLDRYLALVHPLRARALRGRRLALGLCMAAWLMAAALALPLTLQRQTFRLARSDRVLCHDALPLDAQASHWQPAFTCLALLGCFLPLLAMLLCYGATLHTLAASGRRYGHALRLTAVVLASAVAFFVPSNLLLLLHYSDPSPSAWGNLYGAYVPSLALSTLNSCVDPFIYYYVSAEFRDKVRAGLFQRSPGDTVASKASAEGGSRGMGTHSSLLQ
# Assay: PAR4 FLIPR assay: antagonism of agonist-peptide-induced calcium mobilization in PAR4-expressing HEK293 cells
# Format: cell-based
# Details: H-Ala-Phe(4-F)-[…]NH2-induced intracellular calcium mobilization, 11-point curves
row,Compound,IC50 [nM]
1,"COc1cnc2c(-c3nc4cc(F)c(O[C@@H](C)[C@@H](C)OC(=O)Nc5ccc(CCO)nc5)cc4s3)cc(C)cc2n1 [Example 387, (2R,3S)-3-((5-fluoro-2-(2-methoxy-7-methylquinoxalin-5-yl)benzo[d]thiazol-6-yl)oxy)butan-2-yl (6-(2-hydroxyethyl)pyridin-3-yl)carbamate]",1.5
2,"COc1cnc2c(-c3nc4cc(F)c(O[C@@H](C)[C@@H](C)OC(=O)Nc5ccnc(OCCO)c5)cc4s3)cc(C)cc2n1 [Example 388, (2R,3S)-3-((5-fluoro-2-(2-methoxy-7-methylquinoxalin-5-yl)benzo[d]thiazol-6-yl)oxy)butan-2-yl (2-(2-hydroxyethoxy)pyridin-4-yl)carbamate]",0.7
3,"CCOc1cnc2c(-c3nc4cc(F)c(O[C@@H](C)[C@@H](C)OC(=O)Nc5cnc(C)nc5)cc4s3)cc(C)cc2n1 [Example 389, (2R,3S)-3-((2-(2-ethoxy-7-methylquinoxalin-5-yl)-5-fluorobenzo[d]thiazol-6-yl)oxy)butan-2-yl (2-methylpyrimidin-5-yl)carbamate]",0.4
4,"CNc1cnc2c(-c3nc4cc(F)c(O[C@@H](C)[C@@H](C)OC(=O)Nc5cnc(C)nc5)cc4s3)cc(C)cc2n1 [Example 390, (2R,3S)-3-((5-fluoro-2-(7-methyl-2-(methylamino)quinoxalin-5-yl)benzo[d]thiazol-6-yl)oxy)butan-2-yl (2-methylpyrimidin-5-yl)carbamate]",3.6
5,"COc1cnc2c(-c3nc4c(Cl)c(F)c(OCCOC(=O)Nc5ccc(C#N)nc5)cc4s3)cc(C)cc2n1 [Example 395, 2-((4-chloro-5-fluoro-2-(2-methoxy-7-methylquinoxalin-5-yl)benzo[d]thiazol-6-yl)oxy)ethyl (6-cyanopyridin-3-yl)carbamate]",5.8
6,"COc1cnc2c(-c3nc4c(Cl)c(F)c(OCCOC(=O)NCc5ccccn5)cc4s3)cc(C)cc2n1 [Example 396, 2-((4-chloro-5-fluoro-2-(2-methoxy-7-methylquinoxalin-5-yl)benzo[d]thiazol-6-yl)oxy)ethyl (pyridin-2-ylmethyl)carbamate]",4.6
7,"COc1cnc2c(-c3nc4c(Cl)c(F)c(OCCOC(=O)NCc5cn(C)cn5)cc4s3)cc(C)cc2n1 [Example 397, 2-((4-chloro-5-fluoro-2-(2-methoxy-7-methylquinoxalin-5-yl)benzo[d]thiazol-6-yl)oxy)ethyl ((1-methyl-1H-imidazol-4-yl)methyl)carbamate]",210
8,"COc1cnc2c(-c3nc4c(Cl)c(F)c(OCCOC(=O)NCc5ccn(C)n5)cc4s3)cc(C)cc2n1 [Example 398, 2-((4-chloro-5-fluoro-2-(2-methoxy-7-methylquinoxalin-5-yl)benzo[d]thiazol-6-yl)oxy)ethyl ((1-methyl-1H-pyrazol-3-yl)methyl)carbamate]",8.6
9,"COc1cnc2c(-c3nc4c(Cl)c(F)c(OCCOC(=O)NCc5cnn(C)c5)cc4s3)cc(C)cc2n1 [Example 399, 2-((4-chloro-5-fluoro-2-(2-methoxy-7-methylquinoxalin-5-yl)benzo[d]thiazol-6-yl)oxy)ethyl ((1-methyl-1H-pyrazol-4-yl)methyl)carbamate]",3.9
10,"COc1cnc2c(-c3nc4c(Cl)c(F)c(OC[C@@H](C)OC(=O)Nc5cnc(C#N)nc5)cc4s3)cc(C)cc2n1 [Example 400, (R)-1-((4-chloro-5-fluoro-2-(2-methoxy-7-methylquinoxalin-5-yl)benzo[d]thiazol-6-yl)oxy)propan-2-yl (2-cyanopyrimidin-5-yl)carbamate]",2
11,"COc1cnc2c(-c3nc4c(Cl)c(F)c(OC[C@@H](C)OC(=O)Nc5cnc(Cl)nc5)cc4s3)cc(C)cc2n1 [Example 401, (R)-1-((4-chloro-5-fluoro-2-(2-methoxy-7-methylquinoxalin-5-yl)benzo[d]thiazol-6-yl)oxy)propan-2-yl (2-chloropyrimidin-5-yl)carbamate]",2.7
12,"COc1cnc2c(-c3nc4c(Cl)c(F)c(OC[C@@H](C)OC(=O)Nc5cnc(F)c(C)c5)cc4s3)cc(C)cc2n1 [Example 402, (R)-1-((4-chloro-5-fluoro-2-(2-methoxy-7-methylquinoxalin-5-yl)benzo[d]thiazol-6-yl)oxy)propan-2-yl (6-fluoro-5-methylpyridin-3-yl)carbamate]",3.7
13,"COc1cnc2c(-c3nc4c(Cl)c(F)c(OC[C@@H](C)OC(=O)Nc5ccc(Br)nc5)cc4s3)cc(C)cc2n1 [Example 403, (R)-1-((4-chloro-5-fluoro-2-(2-methoxy-7-methylquinoxalin-5-yl)benzo[d]thiazol-6-yl)oxy)propan-2-yl (6-bromopyridin-3-yl)carbamate]",1.7
14,"COc1cnc2c(-c3nc4c(Cl)c(F)c(O[C@@H](C)[C@@H](C)OC(=O)Nc5cccnc5)cc4s3)cc(C)cc2n1 [Example 404, (2R,3S)-3-((4-chloro-5-fluoro-2-(2-methoxy-7-methylquinoxalin-5-yl)benzo[d]thiazol-6-yl)oxy)butan-2-yl pyridin-3-ylcarbamate]",2.2
15,"COc1cnc2c(-c3nc4cc(F)c(O[C@@H](C)[C@@H](C)OC(=O)Nc5ccc(C)nc5)cc4s3)cc(C)cc2n1 [Example 405, (2R,3S)-3-((5-fluoro-2-(2-methoxy-7-methylquinoxalin-5-yl)benzo[d]thiazol-6-yl)oxy)butan-2-yl (6-methylpyridin-3-yl)carbamate]",1.9
16,"COc1cnc2c(-c3nc4cc(F)c(O[C@@H](C)[C@@H](C)OC(=O)Nc5ccc6[nH]c(=O)oc6c5)cc4s3)cc(C)cc2n1 [Example 406, (2R,3S)-3-((5-fluoro-2-(2-methoxy-7-methylquinoxalin-5-yl)benzo[d]thiazol-6-yl)oxy)butan-2-yl (2-oxo-2,3-dihydrobenzo[d]oxazol-6-yl)carbamate]",3.5
17,"COc1cnc2c(-c3nc4cc(F)c(O[C@@H](C)[C@@H](C)OC(=O)Nc5cnc(OC)nc5)cc4s3)cc(C)cc2n1 [Example 407, (2R,3S)-3-((5-fluoro-2-(2-methoxy-7-methylquinoxalin-5-yl)benzo[d]thiazol-6-yl)oxy)butan-2-yl (2-methoxypyrimidin-5-yl)carbamate]",0.9
18,"COc1cnc2c(-c3nc4cc(F)c(OC[C@@H](C)OC(=O)Nc5cnc(OC)nc5)cc4s3)cc(C)cc2n1 [Example 408, (R)-1-((5-fluoro-2-(2-methoxy-7-methylquinoxalin-5-yl)benzo[d]thiazol-6-yl)oxy)propan-2-yl (2-methoxypyrimidin-5-yl)carbamate]",3.2
19,"COc1cnc2c(-c3nc4cc(F)c(OC[C@@H](C)OC(=O)Nc5cncnc5)cc4s3)cc(C)cc2n1 [Example 409, (R)-1-((5-fluoro-2-(2-methoxy-7-methylquinoxalin-5-yl)benzo[d]thiazol-6-yl)oxy)propan-2-yl pyrimidin-5-ylcarbamate]",0.4
20,"COc1cnc2c(-c3nc4cc(F)c(O[C@@H](C)[C@@H](C)OC(=O)Nc5cncnc5)cc4s3)cc(C)cc2n1 [Example 410, (2R,3S)-3-((5-fluoro-2-(2-methoxy-7-methylquinoxalin-5-yl)benzo[d]thiazol-6-yl)oxy)butan-2-yl pyrimidin-5-ylcarbamate]",0.3
21,"COc1cnc2c(-c3nc4cc(F)c(OC[C@@H](C)OC(=O)Nc5ccccc5)cc4s3)cc(C)cc2n1 [Example 411, (R)-1-((5-fluoro-2-(2-methoxy-7-methylquinoxalin-5-yl)benzo[d]thiazol-6-yl)oxy)propan-2-yl phenylcarbamate]",4.4
22,"COc1cc(NC(=O)O[C@H](C)[C@H](C)Oc2cc3sc(-c4cc(C)cc5nc(OC)cnc45)nc3cc2F)ccn1 [Example 412, (2R,3S)-3-((5-fluoro-2-(2-methoxy-7-methylquinoxalin-5-yl)benzo[d]thiazol-6-yl)oxy)butan-2-yl (2-methoxypyridin-4-yl)carbamate]",0.3
23,"COc1cnc2c(-c3nc4cc(F)c(O[C@@H](C)[C@@H](C)OC(=O)Nc5ccnnc5)cc4s3)cc(C)cc2n1 [Example 413, (2R,3S)-3-((5-fluoro-2-(2-methoxy-7-methylquinoxalin-5-yl)benzo[d]thiazol-6-yl)oxy)butan-2-yl pyridazin-4-ylcarbamate]",3.4
24,"CCCc1ncc(NC(=O)O[C@H](C)[C@H](C)Oc2cc3sc(-c4cc(C)cc5nc(OC)cnc45)nc3cc2F)cn1 [Example 414, (2R,3S)-3-((5-fluoro-2-(2-methoxy-7-methylquinoxalin-5-yl)benzo[d]thiazol-6-yl)oxy)butan-2-yl (2-propylpyrimidin-5-yl)carbamate]",7
25,"COc1cnc2c(-c3nc4cc(F)c(O[C@@H](C)[C@@H](C)OC(=O)Nc5cnc(C(F)(F)F)nc5)cc4s3)cc(C)cc2n1 [Example 415, (2R,3S)-3-((5-fluoro-2-(2-methoxy-7-methylquinoxalin-5-yl)benzo[d]thiazol-6-yl)oxy)butan-2-yl (2-(trifluoromethyl)pyrimidin-5-yl)carbamate]",3.1
26,"COc1cnc2c(-c3nc4cc(F)c(O[C@@H](C)[C@@H](C)OC(=O)Nc5ccc(C)nn5)cc4s3)cc(C)cc2n1 [Example 416, (2R,3S)-3-((5-fluoro-2-(2-methoxy-7-methylquinoxalin-5-yl)benzo[d]thiazol-6-yl)oxy)butan-2-yl (6-methylpyridazin-3-yl)carbamate]",32
27,"COc1cnc2c(-c3nc4cc(F)c(O[C@@H](C)[C@@H](C)OC(=O)Nc5cnc(C)cn5)cc4s3)cc(C)cc2n1 [Example 417, (2R,3S)-3-((5-fluoro-2-(2-methoxy-7-methylquinoxalin-5-yl)benzo[d]thiazol-6-yl)oxy)butan-2-yl (5-methylpyrazin-2-yl)carbamate]",11

# Reference: patent publication US12060347B2 (BRISTOL-MYERS SQUIBB COMPANY, priority 2016, dated 2024)
